Reference: patent US5714127A, “System for multiple simultaneous synthesis” (Warner-Lambert Company, priority 1995, dated 1998)

Each compound was assayed against benzodiazepine receptor (assay: benzodiazepine receptor binding assay (NovaScreen), [3H]Flunitrazipam radioligand). Details: commercially available reference samples (Table 3 footnote).
Set-up: species or system bovine
Description: After the final compounds are formed using the inventive reaction apparatus, method and system, they are individually tested for biological activity once they are isolated. For example, the method of Sweetnam, et al, Molecular Pharmacology 1986; 29:299 employing bovine cortical membranes as a receptor source and a radiolabeled benzodiazepine, such as Flunitrazepam, to determine competitive ligand binding to the benzodiazepine receptor (central [brain] localized) and some quantitative measure of relative binding potency such as KD or IC50 values. Performing this type of assay serves two purposes: 1) to discover new compounds with biological activity in a given biological screening assay and 2) the development of a relationship between the structural variations contained within the series and biological potency. This second utility is known as development of a structure activity relationship (SAR). This type of assay can be done using the compounds isolated from the array synthesis for any receptor binding screen or assay (screening for receptor agonists or antagonists), enzyme functional assays (measuring competitive or noncompetitive inhibition of the catalyzed reaction), and the like. This strategy may be used to screen for pharmaceutical agents, veterinary agents, agricultural agents, diagnostic reagents, and the like.
To verify that the compounds produced could be used directly in a biological assay, the crude benzodiazepines are tested for activity in a benzodiazepine receptor binding assay without further purification. (The assay was performed using the commercially available NovaScreen® assay system contracted by Scios-Nova Pharmaceutical Corp., Baltimore, Md., whereby bovine cortical membrane preparations were used as the source of receptor and the radioligand employed was [^3 H]Flunitrazipam while the positive control was Clonazepam.) The calculated IC50 's from three concentrations (average of two determinations) for the individual compounds are shown in Table 3.

Row | SMILES | IC50 [µM]
1 | CN1C(=O)CN=C(c2ccccc2)c2cc(Cl)ccc21 [Diazepam, reference compound] | 0.00067

Same assay, conditions: crude benzodiazepines without further purification; bovine cortical membranes; [3H]Flunitrazipam; calculated from three concentrations (average of two determinations)

Row | SMILES | IC50 [µM]
2 | O=C1CN=C(c2ccccc2)c2ccccc2N1 [Number 9] | 0.515
3 | Cc1ccc2c(c1)N(C(C)C)C(=O)CN=C2c1ccccc1 [Number 13] | 18.6
4 | CC1N=C(c2ccccc2)c2cc(Cl)ccc2NC1=O (stereo not drawn) [Number 2] | 0.089
5 | CC1N=C(c2ccccc2)c2cc([N+](=O)[O-])ccc2NC1=O (stereo not drawn) [Number 4] | 0.482
6 | CC1N=C(c2ccccc2)c2ccccc2NC1=O (stereo not drawn) [Number 1] | 5.79
7 | CC1N=C(c2ccccc2)c2cc([N+](=O)[O-])ccc2N(C)C1=O (stereo not drawn) [Number 6] | 1
8 | CC1N=C(c2cccs2)c2ccccc2NC1=O (stereo not drawn) [Number 8] | 5.9
9 | O=C1CN=C(c2cccs2)c2ccccc2N1 [Number 16] | 1.12
10 | O=C1CN=C(c2ccccc2)c2cc(Cl)ccc2N1 [Number 10] | 0.032
11 | CN1C(=O)CN=C(c2ccccc2)c2cc([N+](=O)[O-])ccc21 [Number 14] | 0.064
12 | COc1ccc(C2=NCC(=O)Nc3ccccc32)cc1 [Number 11] | 28.3
13 | O=C1CN=C(c2ccccc2)c2cc([N+](=O)[O-])ccc2N1 [Number 12] | 0.016
14 | O=C1CN=C(C2CCCCC2)c2ccccc2N1 [Number 15] | 25.7
15 | O=C1Nc2ccc([N+](=O)[O-])cc2C(c2ccccc2)=NC1Cc1c[nH]c2ccccc12 (stereo not drawn) [Number 20] | 12.7

Same assay, conditions: crude benzodiazepines without further purification; bovine cortical membranes; [3H]Flunitrazipam; cells that print their own unit mM

Row | SMILES | IC50 [µM]
16 | COc1ccc(C2=NC(Cc3c[nH]c4ccccc34)C(=O)Nc3ccccc32)cc1 (stereo not drawn) [Number 19] | > 1000
17 | Cc1ccc2c(c1)N(C(C)C)C(=O)C(C)N=C2c1ccccc1 (stereo not drawn) [Number 5] | > 1000
18 | COc1ccc(C2=NC(C)C(=O)Nc3ccccc32)cc1 (stereo not drawn) [Number 3] | > 1000
19 | O=C1Nc2ccc(Cl)cc2C(c2ccccc2)=NC1Cc1c[nH]c2ccccc12 (stereo not drawn) [Number 18] | > 1000
20 | O=C1Nc2ccccc2C(c2ccccc2)=NC1Cc1c[nH]c2ccccc12 (stereo not drawn) [Number 17] | > 1000
21 | CC1N=C(C2CCCCC2)c2ccccc2NC1=O (stereo not drawn) [Number 7] | > 1000
